Data: patent publication US8921642B2, “Conditional-stop dimerizable caspase transgenic animals” (Massachusetts Eye and Ear Infirmary, priority 2008, dated 2014)

What was measured:
[1] = test system: cells cotransfected with pCAN-Cre and pCMVflox (dimerizable caspase); test: MTT assay of cell viability after dimerizer treatment of transfected cells; type: cell-based; settings: treated 24 hours after transfection, read 48 hours later; only in the group where both Cre-recombinase and transgene were transfected
Procedure: To confirm that the system works, the effect of the dimerizer, AP20187, was examined in vitro on cells that were transfected with either pCAN-Cre or pCMVflox, or cotransfected with both. 24 hours after transfection, cells were treated with the dimerizer AP20187, and 48 hours later cell-viability/dying cells were examined using a standard MTT (3-(4,5-dimethylthiazol-2-yl)-2,5-diphenyltetrazolium bromide) assay.

[2] = test system: inner and outer hair cells; test: organ of Corti explant culture of double transgenics in medium containing AP20187; type: cell-based, mouse; settings: within 24 hours of incubation
[3] = test system: beta cells of the pancreas; test: in vivo beta cell ablation in Ins-Cre double transgenic mice (IPGTT, GTT); design: species or system mouse
Procedure: Diabetes is cause by loss of insulin producing beta cells in the pancreas. These cells cannot be replaced by known techniques. A model for impaired glucose tolerance was constructed by crossing the transgenic mouse (line B) described herein with an Ins-Cre mouse (Jackson Labs). […] This model has the characteristics of a pre-diabetic mouse.
The FK506 analogue AP20187 was administered by intraperitoneal (IP) injection. β-cell death was monitored in the animals by intraperitoneal glucose tolerance testing (IPGTT) using standard methodology.
The effect on blood glucose levels was also evaluated using a standard glucose tolerance test (GTT). 30 minutes after a glucose challenge, a blood sample was obtained from the tail vein and a measurement of blood glucose was obtained with a glucose monitor.

[4] = test system: cells co-transfected with Cre and dimerizable caspase-3 transgene; test: LIVE/DEAD analysis of co-transfected cells versus original pSHMFv2Caspase3E; type: cell-based; settings: LIVE/DEAD analysis in the presence of AP20187
Excerpt: To determine the extent of cell ablation, the co-transfected cells were compared with the original pSHMFv2Caspase3E in the presence of AP20187 using LIVE/DEAD analysis (Invitrogen). The number of dying cells and the decrease in cell viability was almost same in the co-transfected group as compared to the original plasmid transfection group (FIGS. 6B-6C).

[5] = molecular target: native FKBPs (Homo sapiens, UniProt P62942); settings: cited from earlier work
Sequence of native FKBPs (P62942 whole entry): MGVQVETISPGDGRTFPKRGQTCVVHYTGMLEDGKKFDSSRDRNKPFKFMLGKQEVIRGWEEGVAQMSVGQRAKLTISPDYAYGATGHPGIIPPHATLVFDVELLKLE

[6] = molecular target: FKBPs with a single amino acid substitution: Phe36Val (Homo sapiens, UniProt P62942, F37V); settings: cited from earlier work
Sequence of FKBPs with a single amino acid substitution: Phe36Val (P62942 2-108 F37V limits assumed): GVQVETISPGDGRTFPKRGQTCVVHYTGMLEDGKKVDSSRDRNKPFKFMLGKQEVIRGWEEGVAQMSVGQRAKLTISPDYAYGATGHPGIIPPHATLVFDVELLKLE

[7] = test system: auditory hair cells; test: in vivo hair cell ablation and hearing loss in Brn3c-Cre double transgenic mice; design: species or system mouse
Excerpt: Auditory hair cells are the mechanosensory channel that transduce sound waves to action potentials. Since mammalian hair cells cannot spontaneously regenerate once lost, regenerative medicine for hearing loss would be of great importance, and it has been difficult to establish a reproducible model for ablation of hair cells. The transgenic mice described herein (line D) were mated with a hair cell-specific, Brn3c-Cre mouse from Doug Vetter (Xiang et al., Proc. Natl. Acad. Sci. U.S.A. 94(17):9445-50 (1997); Sage et al., Proc. Nat. Acad. Sci. 103(19):7345-7350 (2006)).
In vivo experiments were also performed. Animals at 6-8 weeks of age were administered AP20187 (10 mg/kg ip) and analyzed six days later. […] Approximately 35˜40% of inner hair cells and 15% of outer hair cells were lost, as judged by Pv3 staining.

[8] = test system: Rosa26-CreER (Cre recombinase); test: tamoxifen-induced Cre recombination in cells from Rosa26-CreER double transgenic mice; type: cell-based, mouse; settings: cells from line F x Rosa26-CreER double transgenic mice, in the presence of tamoxifen
Excerpt: To provide a model for ready confirmation of the function of the conditional-stop dimerizable caspase transgene, the transgenic mice described herein (line F) were crossed with Rosa26-CreER mice. In vitro experiments on cells from the mice were contacted with tamoxifen to induce expression of the Cre recombinase, and the results, shown in FIG. 13, indicate successful recombination and expression of the transgene.

[9] = 10 mg/kg ip, six days later, treated animals
[10] = immunohistochemistry after AP20187 administration

| Structure (SMILES) | cell viability by MTT assay [1] | inner hair cell loss [2] | outer hair cell loss [2] | blood glucose levels in glucose tolerance test (GTT) ([3]; 30 minutes after a glucose challenge, tail vein blood) | glucose control by intraperitoneal glucose tolerance testing (IPGTT) ([3]; IP injection, Ins-Cre double transgenic animals, more pronounced in females than in males) | number of dying cells and decrease in cell viability, co-transfected group compared to original plasmid transfection group [4] | binding to the native FKBPs [5] | binding to FKBPs with Phe36Val substitution [6] | decrease in the amplitude of the auditory brainstem response (ABR) ([7]; 10 mg/kg ip, analyzed six days later, compared with same-animal measurements before treatment) | inner hair cells lost after drug treatment ([7]; 10 mg/kg ip, six days later) | ISO-DP (threshold required to obtain a given level of response) [7, 9] | distortion product otoacoustic emissions (DPOAE) [7, 9] | changes in the spiral ganglion [7, 10] | inner hair cells lost, as judged by Pv3 staining [7, 10] | outer hair cells lost, as judged by Pv3 staining [7, 10] | recombination of the transgene (PCR product on gel) [8] |
| --- | --- | --- | --- | --- | --- | --- | --- | --- | --- | --- | --- | --- | --- | --- | --- | --- |
| CC[C@H](C(=O)N1CCCC[C@H]1C(=O)O[C@H](CCc1ccc(OC)c(OC)c1)c1cccc(OCC(=O)NCC(CNC(=O)COc2cccc([C@@H](CCc3ccc(OC)c(OC)c3)OC(=O)[C@@H]3CCCCN3C(=O)[C@@H](CC)c3cc(OC)c(OC)c(OC)c3)c2)CN(C)C)c1)c1cc(OC)c(OC)c(OC)c1 [AP20187] | significantly reduced | 38.8% | 32.4% | significant increased | partial loss of glucose control | almost same | do not bind | bind with high affinity | 60% | 37.8% | significantly increased | significantly decreased | No remarkable changes | 35˜40% | ~15% | – |
| CC/C(=C(\c1ccccc1)c1ccc(OCCN(C)C)cc1)c1ccccc1 [tamoxifen] | – | – | – | – | – | – | – | – | – | – | – | – | – | – | – | recombined product at 200 bp is present |
